Measurements as given in PubChem BioAssay AID1963971 (Molecular Pharmacology Branch, DTP, NCI, 2024).

System: 953936-095-R-J2-PDC spheroids with HUVEC/MSC, viability
Assay: Anticancer human tumor 953936-095-R-J2-PDC patient-derived cervical squamous cell carcinoma cell line growth inhibition [PI3K]
Conditions: for IC50: curve of first compound; for viability, T/C: stronger effect = lower value; active = viability on the fitted dose curve at most 10% of control; inactive = the rest
Procedure, shortened: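 Combination activity was assessed by viability in multicellular tumor spheroids carrying HUVEC and MSC components. Agents were tested with PI3K inhibitors from a Cmax-based top dose (or 10 microM) downward in half-log increments.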

[1] = second compound 0.0316 µM, first compound 0.0316 µM
[2] = second compound 0.0316 µM, first compound 0.1 µM
[3] = second compound 0.0316 µM, first compound 0.316 µM
[4] = second compound 0.0316 µM, first compound 1 µM
[5] = second compound 0.0316 µM, first compound 3.16 µM
[6] = second compound 0.0316 µM, first compound 10 µM
[7] = second compound 0.1 µM, first compound 0.0316 µM
[8] = second compound 0.1 µM, first compound 0.1 µM
[9] = second compound 0.1 µM, first compound 0.316 µM
[10] = second compound 0.1 µM, first compound 1 µM
[11] = second compound 0.1 µM, first compound 3.16 µM
[12] = second compound 0.1 µM, first compound 10 µM
[13] = second compound 0.316 µM, first compound 0.0316 µM
[14] = second compound 0.316 µM, first compound 0.1 µM
[15] = second compound 0.316 µM, first compound 0.316 µM
[16] = second compound 0.316 µM, first compound 1 µM
[17] = second compound 0.316 µM, first compound 3.16 µM
[18] = second compound 0.316 µM, first compound 10 µM
[19] = second compound 1 µM, first compound 0.0316 µM
[20] = second compound 1 µM, first compound 0.1 µM
[21] = second compound 1 µM, first compound 0.316 µM
[22] = second compound 1 µM, first compound 1 µM
[23] = second compound 1 µM, first compound 3.16 µM
[24] = second compound 1 µM, first compound 10 µM
[25] = second compound 3.16 µM, first compound 0.0316 µM
[26] = second compound 3.16 µM, first compound 0.1 µM
[27] = second compound 3.16 µM, first compound 0.316 µM
[28] = second compound 3.16 µM, first compound 1 µM
[29] = second compound 3.16 µM, first compound 3.16 µM
[30] = second compound 3.16 µM, first compound 10 µM
[31] = second compound 10 µM, first compound 0.0316 µM
[32] = second compound 10 µM, first compound 0.1 µM
[33] = second compound 10 µM, first compound 0.316 µM
[34] = second compound 10 µM, first compound 1 µM
[35] = second compound 10 µM, first compound 3.16 µM
[36] = second compound 10 µM, first compound 10 µM
[37] = second compound 0.0316 µM, first compound 0.000316 µM
[38] = second compound 0.0316 µM, first compound 0.001 µM
[39] = second compound 0.0316 µM, first compound 0.00316 µM
[40] = second compound 0.0316 µM, first compound 0.01 µM
[41] = second compound 0.1 µM, first compound 0.000316 µM
[42] = second compound 0.1 µM, first compound 0.001 µM
[43] = second compound 0.1 µM, first compound 0.00316 µM
[44] = second compound 0.1 µM, first compound 0.01 µM
[45] = second compound 0.316 µM, first compound 0.000316 µM
[46] = second compound 0.316 µM, first compound 0.001 µM
[47] = second compound 0.316 µM, first compound 0.00316 µM
[48] = second compound 0.316 µM, first compound 0.01 µM
[49] = second compound 1 µM, first compound 0.000316 µM
[50] = second compound 1 µM, first compound 0.001 µM
[51] = second compound 1 µM, first compound 0.00316 µM
[52] = second compound 1 µM, first compound 0.01 µM
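Note: spheroids exposed to compounds for seven days before read-out.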

CC1(C)CCC(CN2CCN(c3ccc(C(=O)NS(=O)(=O)c4ccc(NCC5CCOCC5)c([N+](=O)[O-])c4)c(Oc4cnc5[nH]ccc5c4)c3)CC2)=C(c2ccc(Cl)cc2)C1 + Cc1nc(NC(=O)N2CCCC2C(N)=O)sc1-c1ccnc(C(C)(C)C(F)(F)F)c1
5.15 µM: IC50 (second compound 0.316 µM)
< 0.0316 µM: IC50 (second compound 1 µM) | IC50 (second compound 3.16 µM) | IC50 (second compound 10 µM)
inactive: viability, T/C [1] 88.8% | viability, T/C [2] 96.5% | viability, T/C [3] 97.6% | viability, T/C [4] 100% | viability, T/C [5] 109% | viability, T/C [6] 25.2% | viability, T/C [7] 90.7% | viability, T/C [8] 82.5% | viability, T/C [9] 82.7% | viability, T/C [10] 85.7% | viability, T/C [11] 96% | viability, T/C [12] 33.5% | viability, T/C [13] 65.3% | viability, T/C [14] 64.1% | viability, T/C [15] 61.1% | viability, T/C [16] 63.4% | viability, T/C [17] 67.8% | viability, T/C [18] 30.5% | viability, T/C [19] 52.5% | viability, T/C [20] 47.6% | viability, T/C [21] 41.2% | viability, T/C [22] 40.5% | viability, T/C [23] 40% | viability, T/C [24] 19.3% | viability, T/C [25] 27.4% | viability, T/C [26] 27.2% | viability, T/C [27] 25.6% | viability, T/C [28] 26.3% | viability, T/C [29] 22.3% | viability, T/C [30] 20.4% | viability, T/C [31] 11.4% | viability, T/C [32] 10.8% | viability, T/C [33] 10.2% | viability, T/C [34] 11.8% | viability, T/C [35] 12.4% | viability, T/C [36] 8.8%
6.77 µM: IC50 (second compound 0.0316 µM)
7.01 µM: IC50 (second compound 0.1 µM)

Cn1ncnc1[C@H]1c2n[nH]c(=O)c3cc(F)cc(c23)N[C@@H]1c1ccc(F)cc1 + CC(Nc1ccc2c(c1)OCCn1cc(N3C(=O)OCC3C(F)F)nc1-2)C(N)=O
inactive: viability, T/C (second compound 0.00316 µM, first compound 0.000316 µM) 99.8% | viability, T/C (second compound 0.00316 µM, first compound 0.001 µM) 104% | viability, T/C (second compound 0.00316 µM, first compound 0.00316 µM) 105% | viability, T/C (second compound 0.00316 µM, first compound 0.01 µM) 100% | viability, T/C (second compound 0.00316 µM, first compound 0.0316 µM) 98.9% | viability, T/C (second compound 0.00316 µM, first compound 0.1 µM) 91.7% | viability, T/C (second compound 0.01 µM, first compound 0.000316 µM) 103% | viability, T/C (second compound 0.01 µM, first compound 0.001 µM) 106% | viability, T/C (second compound 0.01 µM, first compound 0.00316 µM) 88.1% | viability, T/C (second compound 0.01 µM, first compound 0.01 µM) 94.2% | viability, T/C (second compound 0.01 µM, first compound 0.0316 µM) 95% | viability, T/C (second compound 0.01 µM, first compound 0.1 µM) 86.2% | viability, T/C [37] 80% | viability, T/C [38] 79% | viability, T/C [39] 77.5% | viability, T/C [40] 79.9% | viability, T/C [1] 80.2% | viability, T/C [2] 74.2% | viability, T/C [41] 58.8% | viability, T/C [42] 56% | viability, T/C [43] 60.4% | viability, T/C [44] 57.9% | viability, T/C [7] 54.8% | viability, T/C [8] 50.8% | viability, T/C [45] 34.3% | viability, T/C [46] 35.9% | viability, T/C [47] 35.3% | viability, T/C [48] 33.9% | viability, T/C [13] 34% | viability, T/C [14] 33% | viability, T/C [49] 23.3% | viability, T/C [50] 23.3% | viability, T/C [51] 22.2% | viability, T/C [52] 23.7% | viability, T/C [19] 23% | viability, T/C [20] 24.4%
> 0.1 µM: IC50 (second compound 0.00316 µM) | IC50 (second compound 0.01 µM) | IC50 (second compound 0.0316 µM) | IC50 (second compound 0.1 µM)
< 0.000316 µM: IC50 (second compound 0.316 µM) | IC50 (second compound 1 µM)

CC(Cn1ccc(-c2ccc(C#N)c(Cl)c2)n1)NC(=O)c1cc(C(C)O)[nH]n1 (stereo not drawn) + Cc1nc(NC(=O)N2CCCC2C(N)=O)sc1-c1ccnc(C(C)(C)C(F)(F)F)c1
inactive: viability, T/C [1] 83.7% | viability, T/C [2] 95.2% | viability, T/C [3] 86.4% | viability, T/C [4] 96.9% | viability, T/C [5] 89.8% | viability, T/C [6] 107% | viability, T/C [7] 84.8% | viability, T/C [8] 77.9% | viability, T/C [9] 78.2% | viability, T/C [10] 81.2% | viability, T/C [11] 82.4% | viability, T/C [12] 79.5% | viability, T/C [13] 69.4% | viability, T/C [14] 65.3% | viability, T/C [15] 74.1% | viability, T/C [16] 61% | viability, T/C [17] 61.7% | viability, T/C [18] 66.5% | viability, T/C [19] 43.9% | viability, T/C [20] 41.7% | viability, T/C [21] 43.5% | viability, T/C [22] 45.9% | viability, T/C [23] 44.1% | viability, T/C [24] 44.6% | viability, T/C [25] 24.7% | viability, T/C [26] 26.9% | viability, T/C [27] 27.6% | viability, T/C [28] 25.2% | viability, T/C [29] 26.9% | viability, T/C [30] 28.4% | viability, T/C [31] 10.3% | viability, T/C [32] 10.8% | viability, T/C [33] 10.9% | viability, T/C [34] 11.1% | viability, T/C [35] 10.8% | viability, T/C [36] 13%
> 10 µM: IC50 (second compound 0.0316 µM) | IC50 (second compound 0.1 µM) | IC50 (second compound 0.316 µM)
< 0.0316 µM: IC50 (second compound 1 µM) | IC50 (second compound 3.16 µM) | IC50 (second compound 10 µM)

CC(=O)c1c(C)c2cnc(Nc3ccc(N4CCNCC4)cn3)nc2n(C2CCCC2)c1=O + Cc1nc(NC(=O)N2CCCC2C(N)=O)sc1-c1ccnc(C(C)(C)C(F)(F)F)c1
< 0.000316 µM: IC50 (second compound 1 µM) | IC50 (second compound 3.16 µM) | IC50 (second compound 10 µM)
> 0.1 µM: IC50 (second compound 0.0316 µM) | IC50 (second compound 0.1 µM) | IC50 (second compound 0.316 µM)
inactive: viability, T/C [37] 88.8% | viability, T/C [38] 92.6% | viability, T/C [39] 88.5% | viability, T/C [40] 91% | viability, T/C [1] 103% | viability, T/C [2] 89.5% | viability, T/C [41] 75.6% | viability, T/C [42] 82.3% | viability, T/C [43] 85.6% | viability, T/C [44] 74.1% | viability, T/C [7] 88% | viability, T/C [8] 75.9% | viability, T/C [45] 57.8% | viability, T/C [46] 69.5% | viability, T/C [47] 61% | viability, T/C [48] 60.7% | viability, T/C [13] 70.2% | viability, T/C [14] 59.3% | viability, T/C [49] 46.1% | viability, T/C [50] 46.3% | viability, T/C [51] 44.4% | viability, T/C [52] 44.1% | viability, T/C [19] 45.3% | viability, T/C [20] 43.5% | viability, T/C (second compound 3.16 µM, first compound 0.000316 µM) 25.4% | viability, T/C (second compound 3.16 µM, first compound 0.001 µM) 25.3% | viability, T/C (second compound 3.16 µM, first compound 0.00316 µM) 27.3% | viability, T/C (second compound 3.16 µM, first compound 0.01 µM) 24.9% | viability, T/C [25] 28.3% | viability, T/C [26] 24.7% | viability, T/C (second compound 10 µM, first compound 0.000316 µM) 11.3% | viability, T/C (second compound 10 µM, first compound 0.001 µM) 10.9% | viability, T/C (second compound 10 µM, first compound 0.00316 µM) 10.2% | viability, T/C (second compound 10 µM, first compound 0.01 µM) 10.2% | viability, T/C [31] 11.4% | viability, T/C [32] 11.7%
